Patent US20110201659A1, “AGENT FOR PREVENTING OR TREATING ZOSTER-ASSOCIATED PAIN” (ASTELLAS PHARMA INC., priority 2008, published 2011)

Experiments:
[1] = tested on: herpes simplex virus (HSV) and VZV; conditions: disclosed in Patent References 5 to 7; cited from earlier work
HSV-1 [2] = assay: HSV-1 skin infection of hairless mice: skin lesion score and histopathology of skin, spinal cord and dorsal root ganglion; type: in vivo, mouse
Protocol: Using mice, examination was carried out on the tissue damage and nerve degeneration of the skin, spinal cord and spinal cord dorsal root ganglion by HSV-1 infection. Under ether anesthesia, right side of the dorsal part of a hairless mouse (HOS: HR-1, female, 7 weeks of age at the time of infection) was scratched with a needle, and 15 μl/mouse of an HSV-1 virus liquid was added dropwise to the scratched part to be infected. While, 15 μl/mouse of a solvent instead of the HSV-1 virus liquid was added dropwise in the pseudo-infection group. The compound to be tested (N-(2,6-dimethylphenyl)-N-(2-{[4-(1,2,4-oxadiazol-3-yl)phenyl]amino}-2-oxoethyl)tetrahydro-2H-thiopyran-4-carboxamide 1,1-dioxide: hereinafter, “compound A”) was used by dissolving in a 25% Cremophor (registered trademark) EL/25% polyethylene glycol 400 aqueous solution. By setting the administration liquid volume per one administration to 10 ml/kg, each initial administration was started one day after the HSV-1 infection. Thereafter, 50 mg/kg was repeatedly administered orally twice a day for 5 days.
The skin and spinal column (including spinal cord and dorsal root ganglion) were collected at 11 or 28 days after the infection and fixed with a 10% neutral buffer formalin liquid to prepare paraffin sections. Also, specimens of spinal cord and dorsal root ganglion were prepared on the transverse plane at the level of fourth thoracic vertebra (T4) and sixth thoracic vertebra (T6). Regarding the staining, immunohistological staining for PGP 9.5 as neurite-specific antigen was carried out on the skin sections, in addition to the hematoxylin-eosin staining (HE staining).
The skin lesions which bear resemblance to herpes zoster and are developed accompanied by HSV skin infection were classified based on the skin lesion critical degrees and systemic symptoms and scored as from 0 to 7, every day from 1 day to 28 days after the infection.
Score 1: erythema, blister or scab at local region
Score 2: erythema, blister or scab at small region
Score 3: erythema, blister or scab at middle region
Score 4: strap-like blister or scab
Score 5: erosion accompanied by ulcer at middle region
Score 6: strap-like ulcer
Score 7: death or paralysis

HSV-1 [3] = assay: mouse HSV infection pain model (von Frey hair pain score, histopathology); type: in vivo
Description: Examination was made on the effect of compound A upon the pain accompanied by viral infection. The mouse HSV infection pain model system on which onset of the pain similar to ZAP including acute phase and chronic phase pains has been reported was used in the evaluation of pain (Takasaki I, et al. Pain 2000; 86: 95-101, Takasaki I, et al. Jpn J. Pharmacol 2000; 83: 319-326, Takasaki I, et al. Anesthesiology 2002; 96: 1168-1174, Sasaki A, et al. Neuroscience 2007; 150: 459-466). Briefly, an area of 5×5 mm of epidermis of the lower part of the right hind leg knee joint of a hairless mouse (HOS: HR-1, female, 7 weeks of age at the time of infection) was scratched with a bundle of ten 27G intracutaneous injection needles, and 1.5×10^5 pfu/10 μL of an HSV-1 virus liquid was added dropwise thereto and spread thereon to be infected. Starting from one day after the infection, the compound A (50 mg/kg) or a solvent (25% Cremophor (registered trademark) EL/25% polyethylene glycol 400 aqueous solution) was orally administered twice a day for 5 days (5 animals each). The skin lesions were classified based on the skin lesion critical degrees and systemic symptoms and scored as from 0 to 7 (cf. the above-mentioned Example 1). […] The pain reaction of this case was evaluated as follows. […]
The pain score of each individual was calculated by averaging six scores. […]

[4] = tested on: patients who underwent herpes zoster; assay: clinical evaluation of zoster-associated pain / PHN incidence (Numeric pain scale); type: in vivo, human; conditions: for PHN incidence rate: pain scale of 3 or more on 91 days after first day of administration
Description: The effect of compound A to prevent and treat zoster-associate pain in patients who underwent herpes zoster was clinically evaluated by monitoring the presence or absence of pain after administration of the compound A in the following manner. For the purpose, Numeric pain scale (11 points of from 0 (no pain) to 10 (a pain of more than this cannot be considered)) was used in the pain evaluation (Oxman M N, et al. N Engl J Med 2005; 352: 2271-2284).
Under informed consent with the persons themselves, 100 mg, 200 mg or 400 mg of the compound A was taken once a day for 7 days by each of the patients who underwent herpes zoster, and the pain was recorded by them day by day by the Numeric pain scale using a diary. From the diary record, the number of patients having pain scales of 3 or more on 91 days after the first day of drug administration were counted as the cases of PHN onset, and using the ratio based on the all persons to be rested as the PHN incidence rate, the effect of the compound A to prevent PHN was evaluated. As a result, the PHN incidence rate in the group which took 100 mg, 200 mg or 400 mg of the compound A was 2.0% (2 cases in 99 persons), 1.0% (1 case in 97 persons) or 3.2% (3 cases in 95 persons), respectively. Compound A inhibited the onset of PHN in 95% or more of the herpes zoster patients in the clinical evaluation.

VZV = conditions: reported in Patent References 5 to 8; cited from earlier work

| Structure (SMILES) | in vivo activity [1] | skin lesion score (onset of herpes zoster-like skin lesions) (HSV-1 [2]; hairless mouse, HSV-1 dorsal skin infection, 50 mg/kg orally twice a day for 5 days from 1 day after infection, scored day 1-28, FIG. 1) | right dorsal root ganglion histopathology (degeneration of nerve cell, infiltration of mononuclear cell) (HSV-1 [2]; right dorsal root ganglion at 11 days after infection, HE staining, FIG. 3d) | skin histopathology, HE staining (fall off of epidermis, infiltration of mononuclear cells, regeneration of epidermis) (HSV-1 [2]; skin at 11 days after infection, 50 mg/kg orally twice a day for 5 days, FIG. 2b) | PGP 9.5 immunostaining of the skin (nerve ending in epidermis) (HSV-1 [2]; skin at 28 days after infection, versus solvent control group, FIG. 2d) | spinal cord histopathology (nerve fiber vacuolization) (HSV-1 [2]; spinal cord at 11 days after infection, HE staining, FIG. 3b) | nerve cell degeneration in right dorsal root ganglion, spinal cord right dorsal horn and right hind leg sciatic nerve bundle (HSV-1 [3]; 28 days after infection, HE staining, FIG. 5) | pain score (von Frey hair 0.4 g, infected hind leg) (HSV-1 [3]; hairless mouse, HSV-1 hind leg infection, 50 mg/kg orally twice a day for 5 days from 1 day after infection, early stage of onset and complete recovery stage of the lesion, FIG. 4B) | PHN incidence rate ([4]; 100 mg once a day for 7 days, 99 persons) [%] | PHN incidence rate ([4]; 200 mg once a day for 7 days, 97 persons) [%] | PHN incidence rate ([4]; 400 mg once a day for 7 days, 95 persons) [%] | herpes zoster patients in whom onset of PHN was inhibited ([4]; 100, 200 or 400 mg once a day for 7 days, all dose groups) [%] | anti-viral activity on VZV (VZV) |
| --- | --- | --- | --- | --- | --- | --- | --- | --- | --- | --- | --- | --- | --- |
| Cc1ccc(N(CC(=O)Nc2ccc(-c3cocn3)cc2)C(=O)C2CCS(=O)(=O)CC2)cc1 [N-(4-methylphenyl)-N-(2-{[4-(1,3-oxazol-4-yl)phenyl]amino}-2-oxoethyl)tetrahydro-2H-thiopyran-4-carboxamide 1,1-dioxide] | good in vivo activity | – | – | – | – | – | – | – | – | – | – | – | – |
| Cc1cccc(C)c1N(CC(=O)Nc1ccc(-c2ncon2)cc1)C(=O)C1CCS(=O)(=O)CC1 [compound A, N-(2,6-dimethylphenyl)-N-(2-{[4-(1,2,4-oxadiazol-3-yl)phenyl]amino}-2-oxoethyl)tetrahydro-2H-thiopyran-4-carboxamide 1,1-dioxide] | good in vivo activity | inhibited the onset of skin lesions | inhibited degeneration of nerve cell and infiltration of mononuclear cell | inhibited fall off of epidermis and infiltration of mononuclear cell and accelerated regeneration of epidermis | inhibition of the reduction of nerve ending | protected nerve fiber in the spinal cord | nerve cell degeneration was inhibited | increase of pain score was considerably inhibited | 2.0 | 1.0 | 3.2 | ≥ 95 | has the anti-viral activity on VZV |
